Molecules are shown by their SMILES.

Consider 1 molecule from patent US11179391B2, “Compound with kinase inhibitory activity and preparation method and use thereof” (priority 2017, dated 2021).

For the test, the system named is Human colorectal cancer Colo-205 cells. The test is described as follows: Pharmacodynamic study on mouse Colo-205 model (subcutaneous xenograft). In kind it is in vivo, BALB/c nude mice. The text has this: BALB/c nude mice, 6-8 weeks old, weighing 12-14 g, female, provided by Shanghai Lab Animal Research Center (Shanghai Xipuer-Beikai) with an animal certificate No: 2008001682093.
The experiment was started after 3-7 days in the experimental environment when the animals arrived. Animals were housed in IVC (independent air supply system) cages (Four animals per cage) in SPF grade experimental animal facilities. Each cage animal information card contained the number of animals in the cage, sex, strain, receiving date, dosing schedule, experiment number, group and start date of the experiment. All cages, bedding, and drinking water were sterilized before use and were updated twice a week.
4.3 Tumor Cell Inoculation Method
Human colorectal cancer Colo-205 cells (ATCC-CCL-222) were cultured in vitro in monolayer under the conditions of RPMI 1640 medium with 10% fetal bovine serum, 100 U/mL penicillin and 100 μg/mL streptomycin, and 37° C. 5% CO2 incubator. The passage was routinely digested with trypsin-EDTA twice a week. When the cell saturation was up to 80%-90% and reached the requirement, the cells were collected, counted and inoculated. 0.2 mL (5×10^6) Colo-205 cells were subcutaneously inoculated on the right back of each mouse, and mice were randomly grouped and dosed when the average tumor volume reached 163 mm^3.
4.14 mL of lactic acid was added to a large beaker containing 800 mL of deionized water, and the pH was adjusted to 4.0 with 5 N NaOH. Then the volume was fixed to 1,000 mL to obtain 50 mmol/L sodium lactate buffer.
The subcutaneous tumor volume of nude mice was measured 2-3 times a week, and the mice were weighed, and the data were recorded.
4.6 Analysis and Evaluation
Experimental evaluation index: the tumor growth inhibition rate TGI (%) or the relative tumor proliferation rate T/C (%) was used for evaluation, wherein T was the experimental group, and C was the vehicle group.

Setting [1] is: Colo-205 model, mesylate, 50 mg/kg PO × 28 days, day 28.

Take `CCN1CCC(C(C)c2ccc(Nc3ncc(F)c(-c4cc(F)c5nc(C)n(C(C)C)c5c4)n3)nc2)CC1` (single isomer, unassigned) [Example 17, (R or S)—N-(5-(1-(1-ethylpiperidin-4-yl)ethyl)pyridin-2-yl)-5-fluoro-4-(4-fluoro-1-isopropyl-2-methyl-1H-benzo[d]imidazol-6-yl) pyrimidin-2-amine]: the “Tumor volume (day 0)” value (Colo-205 model, baseline at start of dosing, mesylate, 50 mg/kg PO × 28 days) was 198 mm^3. For the same molecule, the “antitumor effect compared with Abemaciclib (in words)” value (Colo-205 model, same dosage (50 mg/kg PO × 28 days)) was “better antitumor effect than positive control compound Abemaciclib”. Further, the “Tumor volume (day 28)” value (Colo-205 model, mesylate, 50 mg/kg PO × 28 days) was found to be 591 mm^3. For the same molecule, under setting [1], the “T/C relative tumor proliferation rate” value amounted to 18.2% and the “TGI tumor growth inhibition rate” value is recorded as 81.8%. Further, where the note is “Colo-205 nude mouse model, 50 mg/kg, continuous PO administration for 28 days”, the “inhibitory effect on the tumor growth (in words)” value is reported as “strong inhibitory effect”.
